From PMC7360964, “Auto‐inhibition of Mif2/CENP‐C ensures centromere‐dependent kinetochore assembly in budding yeast” (The EMBO Journal, 2020)
Where no end group is shown, it is not given here.

Molecular target: T1, MN (Saccharomyces cerevisiae, UniProt P39731+P47149)
T1 construct: made in house; host or cells: E. coli BL21 (DE3)
T1 sequence (P39731 1-289): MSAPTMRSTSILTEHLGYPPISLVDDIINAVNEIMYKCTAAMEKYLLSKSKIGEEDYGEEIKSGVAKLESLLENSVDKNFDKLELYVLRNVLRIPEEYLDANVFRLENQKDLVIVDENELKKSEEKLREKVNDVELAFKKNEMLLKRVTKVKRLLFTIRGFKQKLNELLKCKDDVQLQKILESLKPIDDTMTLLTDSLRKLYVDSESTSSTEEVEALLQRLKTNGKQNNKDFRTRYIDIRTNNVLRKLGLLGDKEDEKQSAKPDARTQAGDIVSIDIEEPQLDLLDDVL
T1 sequence (P47149 1-201): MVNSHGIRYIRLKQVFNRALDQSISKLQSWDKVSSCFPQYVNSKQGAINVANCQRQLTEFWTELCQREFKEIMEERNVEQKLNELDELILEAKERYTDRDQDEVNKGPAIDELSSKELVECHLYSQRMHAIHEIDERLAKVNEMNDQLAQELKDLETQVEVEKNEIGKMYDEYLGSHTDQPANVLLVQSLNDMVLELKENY
Assay: Isothermal titration calorimetry (ITC) with MN
Format: binding, budding yeast (S. cerevisiae)
Settings: summary of FP and ITC assays
From the text: Figure 5 The Mif2 N‐terminus is prevented from high‐affinity Mtw1c binding in the full‐length molecule • Co‐purification of Strep‐Mtw1c through Flag‐Mif2 after co‐expression in insect cells. Proteins were detected by Western blotting using their respective tags. • Western blotting of elution fractions from an SEC experiment of Mif2‐wt or Mif2^Ame1‐N swap in the absence (upper panel) or presence (lower panel) of Mtw1c. • ITC analysis of Mif2^1‐41 or Ame1^1‐20 binding to MN. Experiments were performed 3 or 4 times, respectively. One representative binding curve is shown, whereas the KD value represents the average of all experiments. • Cross‐link (XL) MS analysis of the Mif2wt protein in isolation or bound to Cse4n using the cross‐linker Bis[sulfosuccinimidyl] glutarate. Mif2wt alone or in combination with Cse4n was subjected to analytical size‐exclusion chromatography at 10 μM concentration. The corresponding Coomassie‐stained SDS–PAGE gels of Mif2‐wt alone or in combination with Cse4n are shown. Fractions used for cross‐linking are highlighted. […]
The binding constant of Ame1 could only be indirectly measured in the FP competition assay, as labeling of Ame1 N‐terminal peptides rendered them insoluble. We therefore directly determined binding affinities of Mif2 and Ame1 N‐terminal peptides to MN using isothermal titration calorimetry (ITC). […]

Question: “MDYMKLGLKSRKTGIDVKQDIPKDEYSMENIDDFFKDDETS [Mif2^1‐41]” was tested. Which “dissociation constants for Mtw1 constructs” value did it give?
Answer: low micromolar range
